Test system: dopaminergic neurons
Assay: Neurite outgrowth, dopaminergic neurons
Assay type: cell-based, rat
Conditions: 72 h; for Effect on Neurite Length (Percent Increase vs. Control): DN E14
Experimental: The cultures were subsequently immunostained for tyrosine hydroxylase. Hippocampal neurons and CGN were plated at a density of 10,000 cells/cm^2 on 8-well permanox chamber slides and incubated for 24 hours in the presence of various concentrations of FGLd. Subsequently the neurons were immunostained for GAP-43. Results from at least five independent experiments for each neuronal culture are shown as percentage ±SEM with the untreated controls set at 100%. *p<0.05, **p<0.01, ***p<0.001 when compared to the controls.
After 72 hours of incubation, the neurons were fixed with 4% (v/v) formaldehyde and immunostained using a primary mouse monoclonal antibody against tyrosine hydroxylase and secondary biotinylated sheep anti-mouse antibodies followed by incubation with peroxidase conjugated streptavidin. 98 images for each experimental condition in each individual experiment were automatically recorded using a computerised microscope workstation described by Walmod et al. (2002) Toxicol Appl Pharmacol. 181:1-15. Briefly, the workstation consisted of an Eclipse TE 300 inverted microscope (Nikon, Tokyo, Japan) equipped with a motorised, movable microscope stage (LUDL Electronic Production Ltd, Hawthorne, N.Y., USA), a 10× objective and a 1100 analogue b/w CCD video camera (DFA, Denmark). A software package Prima developed at the Protein Laboratory (Copenhagen University, Denmark) was used to make a stereologically based determination of neurite length according to Rønn et al., (2000) J Neurosci Methods. 100:25-32).

FGLd: MAP-type dendrimer of FGL; dendrimeric tetramer of the FGL peptide (EVYVVAENQQGKSKA)
Effect on Neurite Length (Percent Increase vs. Control) (0.04 μg/mL): 12%
Effect on Neurite Length (Percent Increase vs. Control) (0.2 μg/mL): 23%
Effect on Neurite Length (Percent Increase vs. Control) (1 μg/mL): 24%
Effect on Neurite Length (Percent Increase vs. Control) (5 μg/mL): 13%
maximal average neurite length, dopaminergic neurons (at 1 μg/ml, untreated control = 100%): 125%

— US20090105149A1, “Compounds comprising lpa” (ENKAM PHARMACEUTICALS A/S, priority 2003, published 2009)
